Molecular target: T1, p300 catalytic domain (Homo sapiens, UniProt Q09472)
T1 construct: 40 ng/ml recombinant purified p300 catalytic domain (Millipore); purchased Millipore
T1 sequence (Q09472 1287-1663 limits assumed): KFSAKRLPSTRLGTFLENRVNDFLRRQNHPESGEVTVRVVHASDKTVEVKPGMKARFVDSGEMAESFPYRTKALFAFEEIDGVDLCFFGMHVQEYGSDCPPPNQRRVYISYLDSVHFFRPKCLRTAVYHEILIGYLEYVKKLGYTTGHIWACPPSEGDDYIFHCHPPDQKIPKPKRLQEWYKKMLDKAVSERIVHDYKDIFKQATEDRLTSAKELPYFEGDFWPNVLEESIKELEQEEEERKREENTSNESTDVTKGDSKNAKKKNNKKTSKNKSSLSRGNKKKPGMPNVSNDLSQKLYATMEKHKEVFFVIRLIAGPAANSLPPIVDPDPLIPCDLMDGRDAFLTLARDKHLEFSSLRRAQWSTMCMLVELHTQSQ
Assay: QD-FRET p300 HAT assay, inhibitor response
Format: biochemical
Settings: 40 ng/ml p300 catalytic domain, 100 μM acetyl-CoA, 25 μM substrate peptide, 2 hr at 30° C.
Experimental: p300 assay: In a final volume of 14 μl, 25 μM substrate peptide was incubated with 40 ng/ml recombinant purified p300 catalytic domain (Millipore) in the presence or absence of 100 μM acetyl-CoA (Sigma-Alrich) and different concentrations of anacardic acid in 50 mM Tris-HCl buffer (pH 8.0) containing 0.1% (w/v) BSA (reaction buffer) for 2 hr at 30° C. An aliquot of this reaction mixture was transferred to a 10 μl solution of 50 nM quantum dots and 300 nM Alexa Fluor 647-labelled anti-AcK antibody to achieve a peptide to Qdot ratio of 40:1 and the mixture allowed to incubate for 30 min at room temperature. Fluorescence intensity data were collected with […] on a SpectraMax M5 microplate reader (Molecular Devices) using a 400 nm excitation source.
A synthetic peptide substrate for p300 containing an appending hexahistidine motif was exposed to p300 enzyme in the presence of acetyl-CoA to allow enzymatic acetylation of the peptide. […] This acetylation event was detected by means of an anti-acetyl lysine antibody labelled with a fluorescent dye, which binds selectively to the acetylated lysine residues of the quantum dot-bound peptide. […] This is indicated in the fluorescence spectra as a concomitant decrease in emission at 605 nm and enhanced emission at 670 nm from the Qdot and dye molecules respectively—see FIG. 8.

Compound: CCCCCCCCCCCCCCCc1cccc(O)c1C(=O)O [anacardic acid]
- effect of serial dilutions of inhibitor on dye-specific emission at 670 nm (energy transfer): dose-dependent decrease in dye-specific emission at 670 nm
